Like-named read-outs stand apart in the source and are kept apart here.
Legend:
SIK3 = SIK3 (Homo sapiens (Human), UniProt Q9Y2K2); assay: Pan SIK MS IC50 enzyme assay (SIK3); assay type: biochemical; settings: 1 mM ATP, substrate peptide AQT0508, LCMS/MS detection
Experimental: (§1) Enzyme Assay: Pan SIK MS IC50 Assay
(§2) Salt Induced Kinase (SIK) activity is determined by measuring the effect of a test agent on the activity of the appropriate SIK enzyme to phosphorylate its corresponding substrate. […] The phosphorylated substrate product resulting from the kinase reaction is detected by LCMS/MS, and the area under the peak curve correlates with kinase activity. […] The plates are spun at 1000 rpm for 30 seconds to ensure compounds are at the bottom of the well before removing foil covers. 0.15 μL HPE (assay std) and ZPE (DMSO) are added to the ARP using an HP D300 dispenser. Plates are spun again at 1000 rpm for 30 seconds. […] Plates are spun at 1000 rpm for 30 seconds. Plates are then sealed and incubated at RT for 10 minutes. Following incubation, 5 μL of 5× peptide reagent is added with a Multidrop Combi and designated small volume cassette to initiate the kinase reaction. Plates are spun at 1000 rpm for 30 seconds. Plates are then sealed and incubated at RT for 90 minutes. The assay is stopped by the addition of 5 μl of 120 mM EDTA added with a Multidrop Combi and designated small volume cassette (20 mM final concentration). Plates are spun at 1000 rpm for 30 seconds. 10 μl of the final reaction mix from each of the three individual enzyme plates are transferred by a Platemate Plus to the same corresponding 96 well deepwell plate containing 70 μl Water/Methanol (85/15%) for multiplex MS detection ([…]). Using Activity Base (ABase), an idbs data analysis software tool, the reported area ratio unit data is associated to compound, batch and dose information, the data is evaluated for quality, and the percent inhibition of each well is calculated. The data from each Max effect/HPE and Min effect/ZPE control wells are assessed, and outliers are excluded from all further calculations. The mean and standard deviation of the HPE and ZPE are then calculated for each plate, along with the Z Prime. The compound data is converted into % effect, using the average ZPE and HPE controls as 0% and 100% activity, respectively.

[1] = system: IL10 release from human monocyte derived macrophages stimulated with LPS; assay: SIK macrophage cytokine assay, increase of IL10 release; assay type: cell-based; settings: 1 ng/mL LPS, 4 hours, HTRF
Experimental: (§3) Cytokine Assays: SIK Macrophage Assay Cytokine activity is determined by measuring the effect of a test agent on the inhibitory release of the cytokine TNFα and the increasing release of the cytokine IL10 from human monocyte derived macrophages (human macrophages) stimulated with lipopolysaccharide (LPS). At the time of assay, human macrophages (CGPS group Pfizer Groton, CT) are removed from cryopreservation, thawed quickly at 37° C., diluted in thaw medium (OptiMEM—Gibco medium, 10% heat inactivated fetal bovine serum (HIFBS)), and then centrifuged at 200×g for 10 minutes. […] After ˜60 minutes in an incubator at 37° C. in a humidified environment in 5% carbon dioxide the cells are stimulated by the addition of 5 μL of LPS (10 ng/mL; Sigma) and the assay plate is returned to an incubator at 37° C. in a humidified environment in 5% carbon dioxide for 4 hours. […] The final concentration of DMSO in the assay is approximately 0.1%. After 4 hours, the assay plate is removed from the incubator and centrifuged at 1500 rpm for 10 minutes. A portion of the resulting cell supernatant is then used to determine the amount of IL-10 and TNFα in each well. Cytokine measurements are made using human IL-10 and TNFα HTRF assay kits (Perkin Elmer) following the manufacturer's assay protocol.

SIK1 = SIK1 (Homo sapiens (Human), UniProt P57059); assay: Pan SIK MS IC50 enzyme assay (SIK1); assay type: biochemical; settings: 1 mM ATP, substrate peptide AQT0868, LCMS/MS detection
Chain of SIK1 (P57059 whole entry, species assumed): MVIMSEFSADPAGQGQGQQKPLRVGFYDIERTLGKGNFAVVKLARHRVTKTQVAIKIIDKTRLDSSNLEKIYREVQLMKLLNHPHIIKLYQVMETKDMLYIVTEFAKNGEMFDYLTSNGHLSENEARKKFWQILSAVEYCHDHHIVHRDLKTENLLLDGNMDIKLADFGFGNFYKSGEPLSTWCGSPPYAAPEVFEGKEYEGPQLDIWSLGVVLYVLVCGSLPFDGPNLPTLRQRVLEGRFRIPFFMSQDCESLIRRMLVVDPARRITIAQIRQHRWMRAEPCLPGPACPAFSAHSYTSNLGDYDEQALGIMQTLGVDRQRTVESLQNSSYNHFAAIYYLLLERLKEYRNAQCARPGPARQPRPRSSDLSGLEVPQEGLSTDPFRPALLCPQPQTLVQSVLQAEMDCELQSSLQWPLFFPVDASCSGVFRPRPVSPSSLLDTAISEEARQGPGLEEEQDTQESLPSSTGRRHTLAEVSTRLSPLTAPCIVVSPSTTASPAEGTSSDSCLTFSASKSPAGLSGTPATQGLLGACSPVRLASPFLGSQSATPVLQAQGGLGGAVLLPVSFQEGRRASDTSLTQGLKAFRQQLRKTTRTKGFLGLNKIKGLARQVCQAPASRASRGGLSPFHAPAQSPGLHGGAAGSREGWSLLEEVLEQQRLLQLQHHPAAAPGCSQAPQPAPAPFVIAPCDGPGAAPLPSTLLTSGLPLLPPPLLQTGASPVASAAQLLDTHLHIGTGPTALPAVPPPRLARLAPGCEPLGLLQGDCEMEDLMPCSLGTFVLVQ
Experimental: as §1, §2

SIK2 = SIK2 (Homo sapiens (Human), UniProt Q9H0K1); assay: Pan SIK MS IC50 enzyme assay (SIK2); assay type: biochemical; settings: 1 mM ATP, substrate peptide AQT0252, LCMS/MS detection
Chain of SIK2 (Q9H0K1 whole entry, species assumed): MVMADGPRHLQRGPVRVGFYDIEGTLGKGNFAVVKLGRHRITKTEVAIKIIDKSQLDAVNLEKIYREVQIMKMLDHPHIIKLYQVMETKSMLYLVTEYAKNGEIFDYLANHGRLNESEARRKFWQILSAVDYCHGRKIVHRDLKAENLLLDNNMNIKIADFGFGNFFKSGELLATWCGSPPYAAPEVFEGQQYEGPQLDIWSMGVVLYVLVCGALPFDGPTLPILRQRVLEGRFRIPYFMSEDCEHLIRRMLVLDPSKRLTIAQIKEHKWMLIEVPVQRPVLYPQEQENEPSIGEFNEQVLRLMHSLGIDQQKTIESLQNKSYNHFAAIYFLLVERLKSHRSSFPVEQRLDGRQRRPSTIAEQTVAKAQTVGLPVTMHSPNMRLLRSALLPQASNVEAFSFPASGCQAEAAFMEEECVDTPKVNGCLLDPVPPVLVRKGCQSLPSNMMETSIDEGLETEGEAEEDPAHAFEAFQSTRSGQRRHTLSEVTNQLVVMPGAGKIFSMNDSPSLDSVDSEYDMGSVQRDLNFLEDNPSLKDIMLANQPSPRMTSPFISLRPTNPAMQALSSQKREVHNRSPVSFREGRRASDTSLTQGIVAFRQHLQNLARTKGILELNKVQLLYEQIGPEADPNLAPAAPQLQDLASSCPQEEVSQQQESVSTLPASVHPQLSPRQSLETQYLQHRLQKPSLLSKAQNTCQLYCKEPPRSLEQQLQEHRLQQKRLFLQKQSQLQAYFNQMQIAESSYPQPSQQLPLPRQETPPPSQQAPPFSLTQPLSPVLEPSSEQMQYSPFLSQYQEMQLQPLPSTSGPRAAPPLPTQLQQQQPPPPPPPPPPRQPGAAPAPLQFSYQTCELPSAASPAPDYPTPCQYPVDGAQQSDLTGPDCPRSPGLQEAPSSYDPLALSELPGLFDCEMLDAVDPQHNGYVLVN
Experimental: as §1, §2

[2] = system: TNFα release from human monocyte derived macrophages stimulated with LPS; assay: SIK macrophage cytokine assay, inhibition of TNFα release; assay type: cell-based; settings: 1 ng/mL LPS, 4 hours, HTRF, read-out: TNFa IC50
Experimental: as §3

Chain of SIK3 (Q9Y2K2 whole entry, species assumed): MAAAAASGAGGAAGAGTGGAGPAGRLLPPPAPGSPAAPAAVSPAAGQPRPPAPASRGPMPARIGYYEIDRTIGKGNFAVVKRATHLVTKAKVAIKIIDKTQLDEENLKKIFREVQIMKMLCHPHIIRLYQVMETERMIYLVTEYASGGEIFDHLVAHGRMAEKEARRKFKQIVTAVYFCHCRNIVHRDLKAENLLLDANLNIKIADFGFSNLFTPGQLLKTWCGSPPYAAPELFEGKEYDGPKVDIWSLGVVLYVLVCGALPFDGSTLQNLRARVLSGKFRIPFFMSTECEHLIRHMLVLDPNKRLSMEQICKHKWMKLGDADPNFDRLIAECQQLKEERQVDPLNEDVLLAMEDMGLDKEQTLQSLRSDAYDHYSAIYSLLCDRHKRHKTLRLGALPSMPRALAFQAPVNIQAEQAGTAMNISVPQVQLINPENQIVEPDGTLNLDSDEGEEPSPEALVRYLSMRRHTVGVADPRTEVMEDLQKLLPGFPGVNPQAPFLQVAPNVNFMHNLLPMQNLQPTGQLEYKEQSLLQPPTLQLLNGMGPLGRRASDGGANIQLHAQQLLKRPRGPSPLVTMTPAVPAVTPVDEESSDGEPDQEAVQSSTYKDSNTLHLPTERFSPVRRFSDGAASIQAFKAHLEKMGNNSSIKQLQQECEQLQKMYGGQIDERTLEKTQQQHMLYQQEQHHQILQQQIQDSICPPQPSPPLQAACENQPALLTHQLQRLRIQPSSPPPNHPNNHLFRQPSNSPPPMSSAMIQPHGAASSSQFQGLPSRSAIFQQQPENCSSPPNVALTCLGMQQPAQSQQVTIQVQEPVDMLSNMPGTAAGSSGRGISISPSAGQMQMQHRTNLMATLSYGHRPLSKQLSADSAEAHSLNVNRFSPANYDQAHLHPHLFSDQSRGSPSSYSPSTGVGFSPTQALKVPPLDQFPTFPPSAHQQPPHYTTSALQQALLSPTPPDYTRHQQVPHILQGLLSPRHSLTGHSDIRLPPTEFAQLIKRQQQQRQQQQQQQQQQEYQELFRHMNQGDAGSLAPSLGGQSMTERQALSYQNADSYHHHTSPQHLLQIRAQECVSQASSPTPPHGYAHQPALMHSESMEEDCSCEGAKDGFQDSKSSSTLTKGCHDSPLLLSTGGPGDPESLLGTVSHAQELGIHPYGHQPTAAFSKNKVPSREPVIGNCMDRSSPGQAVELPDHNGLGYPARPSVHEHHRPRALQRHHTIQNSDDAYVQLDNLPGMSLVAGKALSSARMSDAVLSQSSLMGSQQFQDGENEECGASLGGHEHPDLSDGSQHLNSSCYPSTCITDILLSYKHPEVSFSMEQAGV

Compound	IC50 (SIK3)	EC50 ([1]; Macrophage)	IC50 (SIK1)	IC50 (SIK2)	IC50 ([2]; Macrophage)	EC50 [1]	IC50 [2]
CSc1cc(-c2cnc3ccc(N(C)C)c(C#N)n23)cc(OCC2(N)CCCC2)c1C#N [Example 43, 3-(3-((1-Aminocyclopentyl)methoxy)-4-cyano-5-(methylthio)phenyl)-6-(dimethylamino)imidazo[1,2-a]pyridine-5-carbonitrile]	1.1 nM	2 nM	0.2 nM	0.4 nM	0.6 nM		
COc1cccc2ncc(-c3cc(OCC4(N)CCCCC4)c(C#N)c(SC)c3)n12 [Example 29, 2-((1-Aminocyclohexyl)methoxy)-4-(5-methoxyimidazo[1,2-a]pyridin-3-yl)-6 (methylthio)benzonitrile]	11.4 nM	75 nM	2.4 nM	2.9 nM	29.1 nM		
CSc1cc(-c2cnc3ccc(N4CCC4)c(C#N)n23)cc(OCC2(N)CCCC2)c1C#N [Example 46, 3-(3-((1-Aminocyclopentyl)methoxy)-4-cyano-5-(methylthio)phenyl)-6-(azetidin-1-yl)imidazo[1,2-a]pyridine-5-carbonitrile]	2.8 nM	28 nM	0.8 nM	1.5 nM	6.9 nM		
COc1cc(-c2cnc3ccc(N(C)C)c(C#N)n23)cc(OCC2(N)CCCC2)c1C#N [Example 48, 3-(3-((1-Aminocyclopentyl)methoxy)-4-cyano-5-methoxyphenyl)-6-(dimethylamino)imidazo[1,2-a]pyridine-5-carbonitrile]	1.7 nM	4 nM	0.4 nM	0.7 nM	0.8 nM		
CCC1CCCC1(N)COc1cc(-c2cnc3cccc(OC)n23)cc(SC)c1C#N (stereo not shown) [Example 8, 2-((1-Amino-2-ethylcyclopentyl)methoxy)-4-(5-methoxyimidazo[1,2-a]pyridin-3-yl)-6-(methylthio)benzonitrile]	3.3 nM	23 nM	1.1 nM	1 nM	11.1 nM		
CSc1cc(-c2cnc3cccc(C#N)n23)cc(OCC2(N)CCSC2)c1C#N (racemic) [Example 27, (R)-3-(3-((3-aminotetrahydrothiophen-3-yl)methoxy)-4-cyano-5-(methylthio)phenyl)imidazo[1,2-a]pyridine-5-carbonitrile and (6)-3-(3-(((3-aminotetrahydrothiophen-3-yl)methoxy)-4-cyano-5-(methylthio)phenyl)imidazo[1,2-a]pyridine-5-carbonitrile]	5.1 nM	142 nM	3.3 nM	2.5 nM	25.8 nM		
COCC1CCC[C@@](N)(COc2cc(-c3cnc4ccccn34)cc(SC)c2C#N)C1 (mixture of isomers) [Example 31, 2-(((1S)-1-Amino-3-(methoxymethyl)cyclohexyl)methoxy)-4-(imidazo[1,2-a]pyridin-3-yl)-6-(methylthio)benzonitrile and 2-(((1R)-1-amino-3-(methoxymethyl)-cyclohexyl)methoxy)-4-(imidazo[1,2-a]pyridin-3-yl)-6-(methylthio)benzonitrile]	4.8 nM		0.7 nM	1.6 nM		36 nM	13.8 nM
3-(3-((1-Aminocyclopentyl)methoxy)-4-cyano-5-(methylthio)phenyl)pyrazolo[1,5-a]pyridine-4-carbonitrile [Example 37]	0.9 nM		0.3 nM	0.4 nM		27 nM	3.9 nM
CSc1cc(-c2cnc3ccc(C)c(C#N)n23)cc(OCC2(N)CCCC2)c1C#N [Example 40, 3-(3-((1-Aminocyclopentyl)methoxy)-4-cyano-5-(methylthio)phenyl)-6-methylimidazo[1,2-a]pyridine-5-carbonitrile]	1.6 nM	17 nM	0.4 nM	0.6 nM	6.1 nM		
CC[C@@H]1CCC[C@@]1(N)COc1cc(-c2cnc3cccc(OC)n23)cc(OC)c1C#N [Example 2A, 2-(((1S,2R)-1-Amino-2-ethylcyclopentyl)methoxy)-6-methoxy-4-(5-methoxyimidazo[1,2-a]pyridin-3-yl)benzonitrile]	2 nM	21 nM	0.5 nM	0.6 nM	5.2 nM		
CSc1cc(-c2cnc3cccc(C#N)n23)cc(OC[C@@]2(N)CCCC(C)(C)C2)c1C#N (mixture of isomers) [Example 14, (R)-3-(3-((1-Amino-3,3-dimethylcyclohexyl)methoxy)-4-cyano-5-(methylthio)phenyl)imidazo[1,2-a]pyridine-5-carbonitrile and (S)-3-(3-((1-amino-3,3-dimethylcyclohexyl)methoxy)-4-cyano-5-(methylthio)phenyl)imidazo[1,2-a]pyridine-5-carbonitrile]	1.2 nM	45 nM	0.6 nM	1.5 nM	13.7 nM		
CSc1cc(-c2cnc3cc(Cl)cc(C#N)n23)cc(OCC2(N)CCCC2)c1C#N [Example 42, 3-(3-((1-Aminocyclopentyl)methoxy)-4-cyano-5-(methylthio)phenyl)-7-chloroimidazo[1,2-a]pyridine-5-carbonitrile]	2.2 nM	85 nM	3 nM	0.9 nM	10.7 nM		
COc1ccc2ncc(-c3cc(OCC4(N)CCCCC4)c(C#N)c(SC)c3)n2c1C#N [Example 49, 3-(3-((1-Aminocyclohexyl)methoxy)-4-cyano-5-(methylthio)phenyl)-6-methoxyimidazo[1,2-a]pyridine-5-carbonitrile]	2.4 nM	18 nM	0.9 nM	0.7 nM	6.5 nM		
CSc1cc(-c2cnc3ccc(N4CCCC4)c(C#N)n23)cc(OCC2(N)CCCC2)c1C#N [Example 47, 3-(3-((1-Aminocyclopentyl)methoxy)-4-cyano-5-(methylthio)phenyl)-6-(pyrrolidin-1-yl)imidazo[1,2-a]pyridine-5-carbonitrile]	0.9 nM	6 nM	0.2 nM	0.4 nM	1.4 nM		
CCc1ccc2ncc(-c3cc(OCC4(N)CCCC4)c(C#N)c(SC)c3)n2c1C#N [Example 44, 3-(3-((1-Aminocyclopentyl)methoxy)-4-cyano-5-(methylthio)phenyl)-6-ethylimidazo[1,2-a]pyridine-5-carbonitrile]	2.1 nM	38 nM	2.3 nM	1.7 nM	21 nM		
CSc1cc(-c2cnc3cccc(C#N)n23)cc(OCC2(N)CCCC2)c1C#N [Example 36, 3-(3-((1-Aminocyclopentyl)methoxy)-4-cyano-5-(methylthio)phenyl)imidazo[1,2-a]pyridine-5-carbonitrile]	2.1 nM	35 nM	1.2 nM	0.8 nM	4.8 nM		
CC[C@@H]1CCC[C@@]1(N)COc1cc(-c2cnc3cccc(C#N)n23)cc(SC)c1C#N (racemic) [Example 7, 3-(3-(((1S,2R)-1-Amino-2-ethylcyclopentyl)methoxy)-4-cyano-5-(methylthio)phenyl)imidazo[1,2-a]pyridine-5-carbonitrile and 3-(3-(((1R,2S)-1-amino-2-ethylcyclopentyl)methoxy)-4-cyano-5-(methylthio)phenyl)imidazo[1,2-a]pyridine-5-carbonitrile]	1.8 nM	5 nM	0.5 nM	0.8 nM	1.5 nM		

Source: patent publication US20240124450A1, “Novel SIK Inhibitors” (Pfizer Inc., priority 2022, published 2024)
